10 molecules from patent EP4563579A1, “MACROCYCLIC EGFR INHIBITOR, AND PREPARATION METHOD THEREFOR AND PHARMACEUTICAL USE THEREOF” (Abbisko Therapeutics Co., Ltd., priority 2022, dated 2024) can be followed below.

In data set [1] the test system is Ba/F3 EGFR-L858R-C797S (LC). In words: Cell proliferation assay (CellTiter-Glo), Ba/F3 LC. In kind it is cell-based. The conditions noted are these: Mus musculus, BaF3; Ba/F3 EGFR-L858R-C797S cells, 72 hour incubation, CTG readout. A digest of the protocol: (§1)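 Cells seeded overnight, then exposed 72 h at 37 °C, 5% CO2 to nine 3.16-fold dilutions (top final 10 µM, 0.1% DMSO), triplicate wells. Viability read by CellTiter-Glo luminescence, with a T0 plate read at dosing; IC50 (nM) by non-linear sigmoidal regression.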
(In general: In ATP-based viability assays light output follows the ATP content of the culture.)

The test system of data set [2] is Ba/F3 EGFR-DEL19-C797S (DC). The data set can be described thus: Cell proliferation assay (CellTiter-Glo), Ba/F3 DC. Format: cell-based. Particulars: Mus musculus, BaF3; Ba/F3 EGFR-DEL19-C797S cells, 72 hour incubation, CTG readout. As to the method: (§2) • DMEM Medium (Gibco, Cat#11965118) • RPMI1640 Medium (Gibco, Cat#11875119) • Fetal Bovine Serum (FBS) (GBICO, Cat#10099-141) • CellTiter-Glo® Luminescent Cell Viability Assay Kit (Promega, Cat#G7572) 96-well, Black, Clear Flat Bottom Plate (Corning®, Cat# 3603)
(§3) • SpectraMax Multimode Microplate Reader MD, 2104-0010A; • CO2 Incubator, Thermo Scientific 3100 Series; • Biosafety Cabinet, Thermo Scientific, 1300 Series A2; • Inverted Microscope, Olympus, CKX41SF; • Siemens Refrigerator, KK25E76TI.
(§4) • 1. Cell Culture and Inoculation: • (1) Harvest cells in a logarithmic growth phase and count the cells using a […]. Test cell viability using a trypan blue exclusion method to ensure that cell viability is above 90%. • (2) Adjust the cell concentration to desired final density; and add 90 µL of cell suspension to a 96-well plate. • (3) Incubate the cells overnight at 37°C, under 5% CO2 and 95% humidity in the 96-well plate. • 2. T0 Reference Data: • (1) Add 10 µL PBS to each well of the T0 plate containing cells. • (2) Thaw the CTG reagent and equilibrate the plate to room temperature for 30 minutes. • (3) Add an equal volume of CTG solution to each well. • (4) Lyse cells by shaking on an orbital shaker for 5 minutes. • (5) Leave the plate at room temperature for 20 minutes to stabilize the luminescence signal. • (6) Read the T0 […]. • 3. Compound Dilution and Addition • (1) Add a corresponding volume of DMSO to a corresponding compound powder according to the compound information sheet to prepare a 10 mM stock solution. • (2) Prepare 1000-fold and 3.16-fold diluted compound solutions. • (3) Dilute the 1000× diluted compound solution 100-fold with PBS to prepare a 10-fold compound solution, with a maximum concentration of 10 µM, nine concentrations and 3.16-fold dilution. Then add 10 µL of the drug solution concentration to individual wells of the 96-well plate seeded with cells. Test each compound concentration in triplicate wells, and the final DMSO concentration is 0.1%. • (4) Incubate the cells in the 96-well plate containing the drug compounds at 37°C, under 5% CO2, and 95% humidity for an additional 72 hour period prior to performing the CTG analysis. • 4. Fluorescence Signal Reading • (1) Thaw the CTG reagent and equilibrate the plate to room temperature for 30 minutes. • (2) Add an equal volume of CTG solution to each well. • (3) Lyse cells by shaking on an orbital shaker for 5 minutes. • (4) Leave the plate at room temperature for 20 minutes to stabilize the […]. • (5) Read fluorescence value. • 5. Data Processing
(§5) Analyze the data by using GraphPad Prism 7.0 software, and use Non-linear S-curve regression to fit the dose-response curves, to calculate the IC50 values (in nM). The specific experiment results are presented in Table 1: [formula] Table 1: Biology Test Results

Data set [3] is described as follows: Pharmacokinetic experiment in mice. In kind it is in vivo. The conditions noted are these: male, mouse; ICR mice, single oral administration (PO), 10 mg/kg, plasma. An excerpt:
The purpose of this trial is to study the pharmacokinetic behavior of some compounds of the present invention, and the administration method is: Single oral administration (PO) to ICR mice.
The compounds used in this trial are from the compounds in the specific examples of the present invention and the listed positive compounds.
ICR mice male N=9 original source: Shanghai Sippr-Bk Lab Animal Co., Ltd.
The compounds are weighed and dissolved in the corresponding solution (10% PG + 10% Solutol® + 80% pH3 citrate buffer). The mixture is then shaken well and sonicated to prepare a 1 mg/mL stock solution. Nine mice are orally administered at a dose of 10 mg/kg (or IV 2 mg/kg) after an overnight fast.
About 90 µL of blood is collected via the submandibular vein per time point, heparin sodium anticoagulant is added, the sample is placed on ice after collection, and plasma is centrifuged within 1 hour (centrifugation conditions: 8,000 rpm, 6 minutes, 2-8°C). The blood collection timepoints are 0, 0.25, 0.5, 1, 2, 4, 6, 8 and 24 h. The samples are stored in a -20°C refrigerator.
The plasma sample is 40 µL, 160 µL of ice-cold acetonitrile containing internal standard is added, vortexed for 3 minutes, and centrifuged at 11,000 rpm for 5 minutes. 100 µL of the supernatant is taken and added to 100 µL of water, 5 µL of the sample is taken and injected into LC/MS/MS for analysis.

In another data set the test system is A431 WT. The data set can be described thus: Cell proliferation assay (CellTiter-Glo), A431 WT. In kind it is cell-based. The conditions noted are these: Homo sapiens, A-431; A431 WT cells, 72 hour incubation, CTG readout. The method in brief:
as §1

Data set [4] has as its system Ba/F3 EGFR-DEL19-T790M-C797S (DTC). In words: Cell proliferation assay (CellTiter-Glo), Ba/F3 DTC. Particulars: Ba/F3 EGFR-DEL19-T790M-C797S cells, 72 hour incubation, CTG readout; read-out: IC50 BaF3 DTC. Format: cell-based. The method, then:
as §2, §3, §4, §5

The subject of data set [5] is Ba/F3 EGFR-L858R-T790M-C797S (LTC). The data set can be described thus: Cell proliferation assay (CellTiter-Glo), Ba/F3 LTC. In kind it is cell-based. Particulars: Mus musculus, BaF3; Ba/F3 EGFR-L858R-T790M-C797S cells, 72 hour incubation, CTG readout. A digest of the protocol: as §1

A word on the IC50: it is the midpoint of a concentration-inhibition curve. In general, AUC(0-t) refers to exposure summed from dosing to a finite time, without extrapolation to infinity. Lower therefore signals less exposure. As usually defined, the Cmax is the maximum level reached in the sampled fluid or tissue. The term half-life denotes the time in which the quantity being followed falls by half. Read a high half-life as slow decline. With `Cn1ncc2c1OCC1(CCCC1)Cn1nc(N3CC[C@H](NC(=O)C4CC4)C3)c3cnc(cc31)Nc1ccnc-2n1` [Example 54, (S)-N-(1-(1'-methylspiro(cyclopentane-1,6'-8-oxa-3-aza-4(6,1)-pyrazolo[4,3-c]pyridina-2(2,4)-pyrimidina-1(4,5) -pyrazolacyclooctaphane)-3' -yl)pyrrolidin-3-yl)cyclopropanecarboxamide], the IC50 came out at 31.6 nM in data set [1]; 12.1 nM in data set [2]; 654 nM in the data set on A431 WT; 8.7 nM in data set [4]; 12 nM in data set [5]. This molecule also showed an AUC(0-t) in data set [3] of 1730 ng·h/mL. Also, in data set [3], the peak level (Cmax) was 412 ng/mL. This molecule also showed a half-life in data set [3] of 1.3 h.

Turning to `CN1CCC(C#Cc2nn3c4cc(ncc24)Nc2ccnc(n2)-c2cnn(C)c2OCC2(CCCC2)C3)CC1` [Example 1, 1'-methyl-3'-((1-methylpiperidin-4-yl)ethynyl)spiro(cyclopentane-1,6'-8-oxa-3-aza-4(6,1)-pyrazolo[4,3-c]pyridina-2(2,4)-pyrimidina-1(4,5)-pyrazolacyclooctaphane)], the IC50 in data set [1] stood at 17.4 nM; in data set [2] it was 7.9 nM; with A431 WT it was 323 nM; in data set [4], 7.2 nM; in data set [5], 10.5 nM. The AUC(0-t) in data set [3] came out at 1030 ng·h/mL. The same molecule gave a Cmax in data set [3] of 88.2 ng/mL. This molecule also showed a half-life in data set [3] of 3.5 h.

As to `Cn1ncc2c1OCC1(CCCC1)Cn1nc(N3CC[C@@H](C(C)(C)O)C3)c3cnc(cc31)Nc1ccnc-2n1` [Example 13, (R)-2-(1-(1'-methylspiro[cyclopentane-1,6'-8-oxa-3-aza-4(6,1)-pyrazolo[4,3-c]pyridina-2(2,4)-pyrimidina-1(4,5)-pyrazolacyclooctaphane]-3'-yl)pyrrolidin-3-yl)propan-2-ol], the IC50 in data set [1] came out at 25.5 nM; in data set [2] it was 14.8 nM; with A431 WT, 794 nM; in data set [4] it was 8.4 nM; in data set [5] it was 14.9 nM. Also, in data set [3], the AUC(0-t) was determined as 8870 ng·h/mL. For the same molecule, the concentration in data set [3] peaked (Cmax) at 1540 ng/mL. This molecule gave a half-life in data set [3] of 2.2 h.

`CC(C)S(=O)(=O)C[C@H]1CCN(c2nn3c4cc(ncc24)Nc2ccnc(n2)-c2cnn(C)c2OCC2(CCCC2)C3)C1` [Example 39, (S)-3'-(3-((isopropylsulfonyl)methyl)pyrrolidin-1-yl)-1' -methylspiro(cyclopentane-1,6'-8-oxa-3-aza-4(6,1)-pyrazolo[4,3-c]pyridina-2(2,4)-pyrimidina-1(4,5)-pyrazolacyclooctaphane)]: the IC50 in data set [1] is 2.1 nM; in data set [2] it was 2.3 nM; in the data set with A431 WT, 446 nM; in data set [4] it was 1.5 nM; in data set [5], 0.8 nM. In data set [3], this molecule showed an AUC(0-t) of 6080 ng·h/mL. In data set [3], the Cmax was determined as 1560 ng/mL. This molecule also showed a half-life in data set [3] of 3 h.

On to `Cn1ncc2c1OCC1(CCCC1)Cn1nc(N3CC[C@H](CS(=O)(=O)C(F)(F)F)C3)c3cnc(cc31)Nc1ccnc-2n1` [Example 14, (S)-1'-methyl-3'-(3-(((trifluoromethyl)sulfonyl)methyl)pyrrolidin-1-yl)spiro[cyclopentane-1,6'-8-oxa-3-aza-4(6,1)-pyrazolo[4,3-c]pyridina-2(2,4)-pyrimidina-1(4,5)-pyrazolacyclooctaphane]], for which the IC50 worked out at 5 nM in data set [1]; 2.8 nM in data set [2]; 1720 nM in the data set on A431 WT; 3.5 nM in data set [4]; 3.6 nM in data set [5]. This molecule came in with an AUC(0-t) in data set [3] of 5320 ng·h/mL. The Cmax in data set [3] was 882 ng/mL. Moreover, the half-life in data set [3] is 2.4 h.

Consider `CC#Cc1nn2c3cc(ncc13)Nc1ccnc(n1)-c1cnn(C)c1OCC[C@@H]2C` [Example A1, (S)-1^1,5-dimethyl-4^3-(prop-1-yn-1-yl)-1^1H,4^1H-8-oxa-3-aza-4(6,1)-pyrazolo[4,3-c]py ridina-2(2,4)-pyrimidina-1(4,5)-pyrazolacyclooctaphane], for which the IC50 in data set [1] was 299 nM; in data set [2] it was 40.9 nM; with A431 WT, 2700 nM; in data set [4] it was 64.9 nM; in data set [5], 262 nM.

In the case of `Cn1ncc2c1OCC1(CCCC1)Cn1nc(N3CC[C@](C)(O)C3)c3cnc(cc31)Nc1ccnc-2n1` [Example 23, (S)-3-methyl-1-(1'-methylspiro(cyclopentane-1,6'-8-oxa-3-aza-4(6,1)-pyrazolo[4,3-c]pyridina-2(2,4)-pyrimidina-1(4,5)-pyrazolacyclooctaphane)-3'-yl)pyrrolidin-3-ol], the IC50 in data set [1] is 19.5 nM; in data set [2], 7.8 nM; in the data set on A431 WT, 771 nM; in data set [4], 3.5 nM; in data set [5], 8.1 nM.

Take `CN1CCC(C#Cc2nn3c4cc(ncc24)Nc2ccnc(n2)-c2cnn(C)c2OCC2(CCC2)C3)CC1` [Example 5, 1'-methyl-3'-((1-methylpiperidin-4-yl)ethynyl)spiro(cyclobutane-1,6'-8-oxa-3-aza-4(6,1)-pyrazolo[4,3-c]pyridina-2(2,4)-pyrimidina-1(4,5)-pyrazolacyclooctaphane)]: the IC50 was found to be 14 nM in data set [1]; 19.7 nM in data set [2]; 1080 nM in the data set with A431 WT; 4.7 nM in data set [4]; 9.2 nM in data set [5].

Consider `CN1CCC(C#Cc2nn3c4cc(ncc24)Nc2ccnc(n2)-c2cnn(C)c2OCC2(CCOCC2)C3)CC1` [Example 4, 1'-methyl-3'-((1-methylpiperidin-4-yl)ethynyl)-2,3,5,6-te trahydrospiro(pyran-4,6'-8-oxa-3-aza-4(6,1)-pyrazolo[4,3-c]pyridina-2(2,4)-pyrimidina-1(4,5)-pyrazolacyclooctaphane)], for which the IC50 in data set [1] is 50.3 nM; in data set [2], 26.8 nM; in the data set with A431 WT, 822 nM; in data set [4] it was 15.6 nM; in data set [5], 12.4 nM.

With `C[C@H]1CCOc2c(cnn2C)-c2nccc(n2)Nc2cc3c(cn2)c(N2CC(CS(C)(=O)=O)C2)nn31` [Example A4, (S)-1^1,5-dimethyl-4^3-(3-((methylsulfonyl)methyl)azetidin-1-yl)-1^1H,4^1H-8-oxa-3-az a-4(6,1)-pyrazolo[4,3-c]pyri dina-2(2,4)-pyrimidina-1(4, 5)-pyrazolacyclooctaphane], the IC50 worked out at 380 nM in data set [1]; 176 nM in data set [2]; 2680 nM in the data set with A431 WT; 244 nM in data set [4]; 186 nM in data set [5].
